By IC50 is commonly meant the concentration needed to halve the response being measured.

Assay type in all cases: cell-based
One assay relates to Karpas-299 cells. As to the kind of experiment: Karpas-299 cell proliferation assay (CellTiter-Glo). The following applies: Homo sapiens, 72 h; Karpas-299 cell line (NPM-ALK); 3 days incubation; at least duplicate experiments; read-out: Prolif. IC50. How it is done:
The effect of inhibitors on the proliferation of Karpas-299 cells (DSMZ no. ACC 31) was determined using the following protocol. Karpas-299 cells were plated in 96-well white tissue culture treated plates (Corning 3917) in growth medium (RPMI, 10% FCS) at a density of 5000 cells/well in a total volume of 135 μL and incubated at 37° C., 5% CO2, 95% humidity overnight. The following day, one-tenth volume of a 10× concentration of compounds was added to the wells in an 8-point dilution series. Compounds were serially diluted (1:4) in DMSO from a 10 mM stock solution prior to dilution in growth media to the 10× working concentrations (5% DMSO). Final concentration of DMSO in compound-treated wells was 0.5%. Control wells containing growth media or growth media/0.5% DMSO were included in all test plates. […] Once the compounds were added to the cells, plates were incubated for 3 days at 37° C., 5% CO2 at 95% humidity. After 72 hours, all cells and reagents were equilibrated to room temperature and 15 μL of CellTiter-Glo reagent (Promega # G7573) was added to each well. Plates were shaken on a platform for 10 minutes at room temperature prior to reading luminescence. The value of the signal of the control wells was set as 100% growth and growth inhibition was expressed as percent of control. IC50 values were determined from the percent of control data using a standard four-parameter curve fit equation.
The IC50 values of exemplary compounds of the present invention determined in a cell proliferation assay using the Karpas-299 cell line according to the procedures described herein in at least duplicate experiments are abbreviated as follows and are shown in Table 5: A, IC50≦0.05 μM; B, 0.05 μM<IC50≦0.2 μM; C, 0.2 μM<IC50≦1 μM; D, IC50>1 μM; ND, not determined. The Example # of Table 5 corresponds to the compound example number as illustrated in the Examples section.
The Karpas-299 cell line has a t(2; 5) chromosomal translocation and expresses the NPM-ALK fusion protein, resulting in constitutively active ALK. […] Ther. 6(12):3314-22 (2007)]. With this “ALK-driven” cell line, the cell proliferation IC50 values can thus be used as surrogate for the p-ALK cell mechanistic IC50 values.

For a further assay, the system named is MKN45 cells. The experiment in a line: MKN45 cell proliferation assay (CellTiter-Glo). The following applies: Homo sapiens, MKN-45, 72 h; MKN45 cell line; 3 days incubation; at least duplicate experiments; read-out: Prolif. IC50. How it is done:
The effect of inhibitors on the proliferation of MKN45 cells was determined using the following protocol. MKN45 cells were plated in Corning 3917 96-well white tissue culture treated plates in growth medium (RPMI, 10% FCS) at a density of 5000 cells/well in a total volume of 135 μL and incubated at 37° C., 5% CO2, 95% humidity overnight. The following day, one-tenth volume of a 10× concentration of compounds was added to the wells in an 8-point dilution series. The dilution series was composed of an initial 1:5 dilution of a 10 mM stock of compound in DMSO, followed by serial 1:4 dilutions in DMSO, then a 1:20 dilution in growth medium prior to the 1:10 dilution into the cell plate. […] The typical dilution range is 10 μM to 0.6 nM. Once the compound was added to the cells, plates were incubated for 3 days at 37° C., 5% CO2 at 95% humidity. On the third day, after allowing all cells and reagents to come to room temperature, 25 μL of CellTiter-Glo reagent (Promega #G7573) was added to the wells. Plates were shaken on a platform for 10 minutes prior to reading luminescence for 0.1 seconds. The signal of the control wells was taken as 100% growth and growth inhibition was expressed as percent of control. IC50 values were determined from the percent of control data using a standard four-parameter model.
The IC50 values of exemplary compounds of the present invention determined in a cell proliferation assay using the MKN45 cell line according to the procedures described herein in at least duplicate experiments are abbreviated as follows and are shown in Table 2: A, IC50≦0.05 μM; B, 0.05 μM<IC50≦0.2 μM; C, 0.2 μM<IC50≦1 μM; D, IC50>1 μM; ND, not determined. The Example # of Table 2 corresponds to the compound example number as illustrated in the Examples section.
Treatment of this cell line with a selective c-MET inhibitor led to induction of apoptosis and inhibition of proliferation, whereas non-MET-amplified cell lines were not affected [Smolen et al., Proc. Natl. Acad. Sci. USA, 103(7):2316-2321 (2006)]. This cell line is thus “driven” by c-MET, and antiproliferative effects correlate very well with the inhibition of c-MET phosphorylation so that the cell proliferation IC50, values can be used as surrogate for the c-MET cell mechanistic IC50, values. Under the assay conditions described herein, the IC50 values correlate nearly 1:1.

A further assay concerns the target T1, RON (Homo sapiens, UniProt Q04912).
T1 sequence (Q04912 913-1400): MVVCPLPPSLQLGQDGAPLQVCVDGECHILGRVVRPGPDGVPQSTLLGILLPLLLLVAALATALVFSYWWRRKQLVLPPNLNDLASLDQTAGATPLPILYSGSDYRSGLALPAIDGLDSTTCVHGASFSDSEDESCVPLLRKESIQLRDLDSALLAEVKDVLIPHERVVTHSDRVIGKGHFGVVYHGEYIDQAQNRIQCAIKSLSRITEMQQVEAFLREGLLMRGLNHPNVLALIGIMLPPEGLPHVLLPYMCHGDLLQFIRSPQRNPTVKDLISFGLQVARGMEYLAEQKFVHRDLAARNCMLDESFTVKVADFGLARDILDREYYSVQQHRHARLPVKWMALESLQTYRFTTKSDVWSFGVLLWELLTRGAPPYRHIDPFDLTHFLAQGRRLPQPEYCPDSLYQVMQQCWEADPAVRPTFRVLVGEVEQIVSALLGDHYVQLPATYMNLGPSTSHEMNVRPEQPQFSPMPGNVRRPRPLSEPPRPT
As to the kind of experiment: sfRON cell mechanistic assay (HeLa), phosphorylated RON ELISA. The following applies: HeLa cells transfected with sfRON; inhibition of phosphorylated RON; four hours incubation; at least duplicate experiments; read-out: sfRON mech IC50. Here is the method: The cellular activity of the compounds of the present invention against RON may be determined by the following procedure. HeLa cells were plated in Falcon 3072 96-well plates in growth media (DMEM, 10% FBS, 1% L-glutamine) at a density of 10000 cells/well and incubated at 37° C., 5% CO2 overnight. The following day, cells were transfected with 0.2 μg sfRON-pcDNA plasmid DNA with 0.5 μL Lipofectamine-2000 per well in the presence of 50 μL OPTI-MEM, incubated at 37° C., 5% CO2 overnight. Costar 3915 96-well assay plates were coated with rabbit Anti-RON antibody at 2.0 μg/mL, sealed, and incubated overnight at 4° C. On the third day, coated plates were washed with PBS and blocked with 3% BSA. For the sfRON transfected cells, one-tenth volume of a 10× concentration of compounds was added to the wells in a 6-point dilution series. The dilution series was composed of an initial 1:5 dilution of a 10 mM DMSO stock solution of compound in DMSO, followed by a 1:10 dilution in growth media, for a final DMSO concentration on cells of 0.5%. Control wells were treated with 0.5% DMSO. The typical range of dilution was 10 μM to 3 nM. Once compound was added to the cells, plates were incubated for four hours at 37° C., 5% CO2. Plates were then washed in PBS, and lysed in triton-based lysis buffer. Lysates were transferred to the blocked capture plates. The phosphorylated RON levels were measured by incubating with a Goat polyclonal antibody against phosphorylated RON ([pYpY1238/1239]) followed by an anti-Goat antibody conjugated to HRP. Signal was measured on a Wallac Victor plate reader with luminance. The DMSO signal of the control wells was defined as 100% and the percent of inhibition of phosphorylated RON was expressed as percent of control. IC50 values were determined from the percent of control data using a standard four-parameter model.
The IC50 values of exemplary compounds of the present invention determined in a sfRON cell mechanistic assay using the HeLa cell line according to the procedures described herein in at least duplicate experiments are abbreviated as follows and are shown in Table 3: A, IC50≦0.2 μM; B, 0.2 μM<IC50≦1.0 μM; C, IC50>1 μM; ND, not determined. The Example # of Table 3 corresponds to the compound example number as illustrated in the Examples section.
A general note: ELISA stands for enzyme-linked immunosorbent assay.

As to `COc1ccc(F)c(Cl)c1[C@@H](C)c1c[nH]c2ncc(-c3c(C)nn([C@H]4CC[C@H](C(=O)O)CC4)c3C)cc12` [Example 25, trans-4-(4-{3-[(1S)-1-(2-Chloro-3-fluoro-6-methoxyphenyl)ethyl]-1H-pyrrolo[2,3-b]pyridin-5-yl}-3,5-dimethyl-1H-pyrazol-1-yl)cyclohexanecarboxylic acid], in the assay on Karpas-299 cells, the IC50 was at most 50 nM. For the molecule `CCOC(=O)[C@H]1CC[C@H](n2nc(C)c(-c3cnc4[nH]cc([C@H](C)c5c(OC)ccc(F)c5Cl)c4c3)c2C)CC1` [Example 26, Ethyl trans-4-(4-{3-[(1S)-1-(2-chloro-3-fluoro-6-methoxyphenyl)ethyl]-1H-pyrrolo[2,3-b]pyridin-5-yl}-3,5-dimethyl-1H-pyrazol-1-yl)cyclohexanecarboxylate], the IC50 in the assay with Karpas-299 cells was at most 50 nM. For `COc1ccc(F)c(Cl)c1[C@@H](C)c1c[nH]c2ncc(-c3cnn(C[C@H](O)CO)c3C(F)(F)F)cc12` [Example 36, (2S)-3-[4-{3-[(1S)-1-(2-Chloro-3-fluoro-6-methoxyphenyl)ethyl]-1H-pyrrolo[2,3-b]pyridin-5-yl}-5-(trifluoromethyl)-1H-pyrazol-1-yl]propane-1,2-diol], the IC50 in the assay with MKN45 cells was 50 to 200 nM; with Karpas-299 cells it was 200 to 1000 nM. As for `COc1ccc(F)c(Cl)c1[C@@H](C)c1c[nH]c2ncc(-c3cn(C[C@H](O)CO)nc3C(F)(F)F)cc12` [Example 37, (2S)-3-[4-{3-[(1S)-1-(2-Chloro-3-fluoro-6-methoxyphenyl)ethyl]-1H-pyrrolo[2,3-b]pyridin-5-yl}-3-(trifluoromethyl)-1H-pyrazol-1-yl]propane-1,2-diol], the IC50 in the assay with MKN45 cells and in the assay with Karpas-299 cells was 200 to 1000 nM throughout. For `COc1ccc(F)c(Cl)c1[C@@H](C)c1c[nH]c2ncc(-c3cnn([C@H]4CC[C@H](O)CC4)c3C(F)(F)F)cc12` [Example 40, trans-4-[4-{3-[(1S)-1-(2-Chloro-3-fluoro-6-methoxyphenyl)ethyl]-1H-pyrrolo[2,3-b]pyridin-5-yl}-5-(trifluoromethyl)-1H-pyrazol-1-yl]cyclohexanol], the IC50 in the assay on MKN45 cells is 50 to 200 nM; on RON, above 1000 nM; in the assay with Karpas-299 cells, above 1000 nM. On to `COc1ccc(F)c(Cl)c1[C@@H](C)c1c[nH]c2ncc(-c3cnn([C@H]4CC[C@@H](N5CCNCC5)CC4)c3C)cc12` [Example 56, 3-[(1S)-1-(2-Chloro-3-fluoro-6-methoxyphenyl)ethyl]-5-{5-methyl-1-[cis-4-(piperazin-1-yl)cyclohexyl]-1H-pyrazol-4-yl}-1H-pyrrolo[2,3-b]pyridine], for which the half-maximal inhibitory concentration (IC50) was 50 to 200 nM with MKN45 cells, above 1000 nM at RON and 50 to 200 nM in the assay with Karpas-299 cells. Regarding `[2H]c1[nH]c2ncc(-c3cnn([C@H]4CC[C@H](O)CC4)c3C)cc2c1[C@H](C)c1c(OC(F)F)ccc(F)c1Cl` [Example 94, trans-4-{-4-[3-{(1S)-1-[2-Chloro-6-(difluoromethoxy)-3-fluorophenyl]ethyl}(2-^2H)-1H-pyrrolo[2,3-b]pyridin-5-yl]-5-methyl-1H-pyrazol-1-yl}cyclohexanol], the IC50 in the assay on MKN45 cells and in the assay on Karpas-299 cells was at most 50 nM in each case. Regarding `[2H]c1[nH]c2ncc(-c3cnn([C@H]4CC[C@H](O)CC4)c3C)cc2c1[C@@H](C)c1c(OC(F)F)ccc(F)c1Cl` [Example 95, trans-4-{-4-[3-{(1R)-1-[2-Chloro-6-(difluoromethoxy)-3-fluorophenyl]-ethyl}(2-^2H)-1H-pyrrolo[2,3-b]pyridin-5-yl]-5-methyl-1H-pyrazol-1-yl}cyclohexanol], the IC50 in the assay with MKN45 cells and in the assay with Karpas-299 cells was 200 to 1000 nM throughout. For `Cc1c(-c2cnc3[nH]cc([C@@H](C)c4c(OC(F)F)ccc(F)c4Cl)c3c2)cnn1[C@H]1CC[C@H](O)CC1` [Example 98, trans-4-[4-(3-{(1R)-1-[2-Chloro-6-(difluoromethoxy)-3-fluorophenyl]ethyl}-1H-pyrrolo[2,3-b]pyridin-5-yl)-5-methyl-1H-pyrazol-1-yl]cyclohexanol], the IC50 in the assay with MKN45 cells was above 1000 nM. With `Cc1c(-c2cnc3[nH]cc([C@@H](CF)c4c(Cl)ccc(F)c4Cl)c3c2)cnn1[C@H]1CC[C@H](O)CC1` [Example 117, trans-4-(4-{3-[(1R)-1-(2,6-dichloro-3-fluorophenyl)-2-fluoroethyl]-1H-pyrrolo[2,3-b]pyridin-5-yl}-5-methyl-1H-pyrazol-1-yl)cyclohexanol], the IC50 in the assay with MKN45 cells and with Karpas-299 cells was above 1000 nM each time.
